{
  "source": "paper PMC5811991",
  "about": "(Biochemistry, 2008)",
  "target": "GDP-perosamine synthase (Caulobacter vibrioides, UniProt Q9A9H3)",
  "sequence (Q9A9H3 whole entry)": "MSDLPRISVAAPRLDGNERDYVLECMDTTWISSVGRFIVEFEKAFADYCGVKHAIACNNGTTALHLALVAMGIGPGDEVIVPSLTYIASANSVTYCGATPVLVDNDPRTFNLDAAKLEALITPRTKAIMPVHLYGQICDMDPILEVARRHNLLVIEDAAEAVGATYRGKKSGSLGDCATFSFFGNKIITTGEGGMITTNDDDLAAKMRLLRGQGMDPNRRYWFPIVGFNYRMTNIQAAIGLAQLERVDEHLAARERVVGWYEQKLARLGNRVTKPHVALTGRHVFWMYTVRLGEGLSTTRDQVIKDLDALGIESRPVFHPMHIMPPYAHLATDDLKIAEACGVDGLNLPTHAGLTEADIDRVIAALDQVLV",
  "experiment": "HPLC assay of substrate decrease",
  "type": "biochemical",
  "settings": "substrate inhibition, competitive versus glutamate (ping-pong, Eq. 1); 100 μM PLP, 20 mM HEPES pH 7.5, 110 mM NaCl, 10 mM MgCl2, room temperature",
  "data": [
    {"smiles": "C[C@H]1O[C@H](OP(=O)(O)OP(=O)(O)OC[C@H]2O[C@@H](n3cnc4c(=O)[nH]c(N)nc43)[C@H](O)[C@@H]2O)[C@@H](O)[C@@H](O)C1=O", "note": "[GDP-4-keto-6-deoxymannose]", "values": [
      {"measurement": "Ki sugar", "result": "89 ± 34", "unit": "µM"}
    ]}
  ]
}
